From ChEMBL document CHEMBL3045023, “Design, synthesis, and antiviral activity evaluation of phenanthrene-based antofine derivatives” (2012)

System: Tobacco mosaic virus
Test: Antiviral activity against Tobacco mosaic virus (TMV) assessed as inhibition of viral growth at 1 ug/mL
Type: functional
Settings: read-out: GI

SMILES | inhibition of growth at 1 µg/mL
COc1cc2c3c(c4ccc(O)cc4c2cc1OC)CN1CCC[C@@H]1C3 | 70%
COc1ccc2c3c(c4cc(OC)c(OC)cc4c2c1)C[C@H]1CCCN1C3 [(-)-ANTOFINE] | 63%
